# Literature values in PubChem BioAssay AID1259409 (Chemical Carcinogenesis Research Information System (CCRIS), 2018).
# Test system: rodent chemically induced tumor inhibition, incidence and multiplicity
# Experiment: CCRIS tumor inhibitor studies
smiles,measurement,setting,value
COc1cc(CNC(=O)CCCC/C=C/C(C)C)ccc1O,"tumour outcome (control, treated, inhibition, significance)","Carcinogen: 7,12-DIMETHYLBENZ[A]ANTHRACENE, 57-97-6, Dose [Inhibitor]: 0, 0.01% IN DIET BEGINNING 3 WK POST CARCINOGEN DOSE AND CONTINUING FOR 6 WK (STUDY DURATION: 9 WK), Route [Inhibitor]: ORAL, Species: MOUSE, Strain/Sex: SWISS/FEMALE, Target Tissue: Type of Lesion: LUNG: ADENOMA, Dose [Carcinogen]: 40 UG ONCE ADMINISTERED TO NEWBORN MICE, Promoter: NONE USED","17/17 (100%), 20/22 (91%), 9%, not calculated"
same,"tumour outcome (control, treated, inhibition, significance)","Carcinogen: 7,12-DIMETHYLBENZ[A]ANTHRACENE, 57-97-6, Dose [Inhibitor]: 0, 0.01% IN DIET BEGINNING 3 WK POST CARCINOGEN DOSE AND CONTINUING FOR 6 WK (STUDY DURATION: 9 WK), Route [Inhibitor]: ORAL, Species: MOUSE, Strain/Sex: SWISS/MALE, Target Tissue: Type of Lesion: LUNG: ADENOMA, Dose [Carcinogen]: 40 UG ONCE ADMINISTERED TO NEWBORN MICE, Promoter: NONE USED","10/10 (100%), 23/24 (96%), 4%, not calculated"
same,"tumour outcome (control, treated, inhibition, significance)","Carcinogen: AZOXYMETHANE (25843-45-2), Dose [Inhibitor]: 0, 500 PPM IN DIET FOR 4 WK, BEGINNING 1 WK BEFORE THE FIRST CARCINOGEN DOSE (STUDY DURATION: 38 WK), Route [Inhibitor]: ORAL, Species: RAT, Strain/Sex: F344/MALE, Target Tissue: Type of Lesion: LARGE INTESTINE: ADENOCARCINOMA, Dose [Carcinogen]: 15 MG/KG BW 1 INJECTION/WK FOR 3 WK, Promoter: NONE USED","9/15 (60%), 4/17 (24%), 60%, p = 0.0407"
same,"tumour outcome (control, treated, inhibition, significance)","Carcinogen: AZOXYMETHANE (25843-45-2), Dose [Inhibitor]: 0, 500 PPM IN DIET FOR 4 WK, BEGINNING 1 WK BEFORE THE FIRST CARCINOGEN DOSE (STUDY DURATION: 38 WK), Route [Inhibitor]: ORAL, Species: RAT, Strain/Sex: F344/MALE, Target Tissue: Type of Lesion: LARGE INTESTINE: ADENOMA, Dose [Carcinogen]: 15 MG/KG BW 1 INJECTIONS/WK FOR 3 WK, Promoter: NONE USED","4/15 (27%), 1/17 (6%), 78%, not significant"
same,"tumour outcome (control, treated, inhibition, significance)","Carcinogen: AZOXYMETHANE (25843-45-2), Dose [Inhibitor]: 0, 500 PPM IN DIET FOR 4 WK, BEGINNING 1 WK BEFORE THE FIRST CARCINOGEN DOSE (STUDY DURATION: 38 WK), Route [Inhibitor]: ORAL, Species: RAT, Strain/Sex: F344/MALE, Target Tissue: Type of Lesion: SMALL INTESTINE: ADENOCARCINOMA, Dose [Carcinogen]: 15 MG/KG BW 1 INJECTION/WK FOR 3 WK, Promoter: NONE USED","4/15 (27%), 3/17 (18%), 33%, not significant"
same,"tumour outcome (control, treated, inhibition, significance)","Carcinogen: AZOXYMETHANE (25843-45-2), Dose [Inhibitor]: 0, 500 PPM IN DIET FOR 4 WK, BEGINNING 1 WK BEFORE THE FIRST CARCINOGEN DOSE (STUDY DURATION: 38 WK), Route [Inhibitor]: ORAL, Species: RAT, Strain/Sex: F344/MALE, Target Tissue: Type of Lesion: SMALL INTESTINE: ADENOMA, Dose [Carcinogen]: 15 MG/KG BW 1 INJECTION/WK FOR 3 WK, Promoter: NONE USED","1/15 (7%), 0/17 (0%), 100%, not significant"
same,"tumour outcome (control, treated, inhibition, significance)","Carcinogen: AZOXYMETHANE (25843-45-2), Dose [Inhibitor]: 0, 500 PPM IN DIET FOR 34 WK, BEGINNING 1 WK AFTER THE LAST CARCINOGEN DOSE (STUDY DURATION: 38 WK), Route [Inhibitor]: ORAL, Species: RAT, Strain/Sex: F344/MALE, Target Tissue: Type of Lesion: LARGE INTESTINE: ADENOCARCINOMA, Dose [Carcinogen]: 15 MG/KG BW 1 INJECTION/WK FOR 3 WK, Promoter: NONE USED","9/15 (60%), 6/14 (43%), 28%, not significant"
same,"tumour outcome (control, treated, inhibition, significance)","Carcinogen: AZOXYMETHANE (25843-45-2), Dose [Inhibitor]: 0, 500 PPM IN DIET FOR 34 WK, BEGINNING 1 WK AFTER THE LAST CARCINOGEN DOSE (STUDY DURATION: 38 WK), Route [Inhibitor]: ORAL, Species: RAT, Strain/Sex: F344/MALE, Target Tissue: Type of Lesion: LARGE INTESTINE: ADENOMA, Dose [Carcinogen]: 15 MG/KG BW 1 INJECTION/WK FOR 3 WK, Promoter: NONE USED","4/15 (27%), 2/14 (14%), 48%, not significant"
same,"tumour outcome (control, treated, inhibition, significance)","Carcinogen: AZOXYMETHANE (25843-45-2), Dose [Inhibitor]: 0, 500 PPM IN DIET FOR 34 WK, BEGINNING 1 WK AFTER THE LAST CARCINOGEN DOSE (STUDY DURATION: 38 WK), Route [Inhibitor]: ORAL, Species: RAT, Strain/Sex: F344/MALE, Target Tissue: Type of Lesion: SMALL INTESTINE: ADENOCARCINOMA, Dose [Carcinogen]: 15 MG/KG BW 1 INJECTION/WK FOR 3 WK, Promoter: NONE USED","4/15 (27%), 3/14 (21%), 22%, not significant"
same,"tumour outcome (control, treated, inhibition, significance)","Carcinogen: AZOXYMETHANE (25843-45-2), Dose [Inhibitor]: 0, 500 PPM IN DIET FOR 34 WK, BEGINNING 1 WK AFTER THE LAST CARCINOGEN DOSE (STUDY DURATION: 38 WK), Route [Inhibitor]: ORAL, Species: RAT, Strain/Sex: F344/MALE, Target Tissue: Type of Lesion: SMALL INTESTINE: ADENOMA, Dose [Carcinogen]: 15 MG/KG BW 1 INJECTION/WK FOR 3 WK, Promoter: NONE USED","1/15 (7%), 0/14 (0%), 100%, not significant"
same,"tumour outcome (control, treated, inhibition, significance)","Carcinogen: BENZO[A]PYRENE, 50-32-8, Dose [Inhibitor]: 0, 0.01% IN DIET BEGINNING 3 WK POST CARCINOGEN DOSE AND CONTINUING FOR 6 WK (STUDY DURATION: 9 WK), Route [Inhibitor]: ORAL, Species: MOUSE, Strain/Sex: SWISS/FEMALE, Target Tissue: Type of Lesion: LUNG: ADENOMA, Dose [Carcinogen]: 1 MG ONCE ADMINISTERED TO NEWBORN MICE, Promoter: NONE USED","8/34 (24%), 4/30 (13%), 46%, p<0.05"
same,"tumour outcome (control, treated, inhibition, significance)","Carcinogen: BENZO[A]PYRENE, 50-32-8, Dose [Inhibitor]: 0, 0.01% IN DIET BEGINNING 3 WK POST CARCINOGEN DOSE AND CONTINUING FOR 6 WK (STUDY DURATION: 9 WK), Route [Inhibitor]: ORAL, Species: MOUSE, Strain/Sex: SWISS/MALE, Target Tissue: Type of Lesion: LUNG: ADENOMA, Dose [Carcinogen]: 1 MG ONCE ADMINISTERED TO NEWBORN MICE, Promoter: NONE USED","7/35 (20%), 3/34 (9%), 55%, p<0.01"
same,"tumour outcome (control, treated, inhibition, significance)","Carcinogen: BENZO[A]PYRENE, 50-32-8, Dose [Inhibitor]: 0, 1 UMOL IN 0.2 ML ACETONE APPLIED 24 AND 1 HR PRIOR TO CARCINOGEN DOSE (STUDY DURATION: 22 WK), Route [Inhibitor]: DERMAL, Species: MOUSE, Strain/Sex: CD-1/FEMALE, Target Tissue: Type of Lesion: SKIN: TUMOR, Dose [Carcinogen]: 0.3 UMOL IN 0.2 ML ACETONE ONCE, Promoter: 12-O-TETRADECANOYLPHORBOL 13-ACETATE, 16561-29-8","84%, 68%, 19%, not significant"
same,"tumour outcome (control, treated, inhibition, significance)","Carcinogen: N-METHYLNITROSOUREA, 684-93-5, DIETHYLNITROSAMINE, 55-18-5, N,N-DIBUTYLNITROS- AMINE, 924-16-3, Carcinogen: N-METHYLNITROSOUREA, 684-93-5, DIETHYLNITROSAMINE, 55-18-5, N,N-DIBUTYLNITROS- AMINE, 924-16-3, Dose [Inhibitor]: 0, 0.01% IN DIET FOR 16 WK BEGINNING POST LAST CARCINOGEN DOSE (STUDY DURATION: 20 WK), Route [Inhibitor]: ORAL, Species: RAT, Strain/Sex: F344/MALE, Target Tissue: Type of Lesion: LUNG: ADENOMA, Dose [Carcinogen]: 100 MG/KG DIETHYLNITROSAMINE INTRAPERITONEAL ON D 1 THEN 200 MG/KG N-METHYLNITROSOUREA ON D 2, 5, 8, 11, AND 0.05% N,N-D","9/16 (56%), 2/15 (13%), 77%, p<0.02"
same,"tumour outcome (control, treated, inhibition, significance)","Carcinogen: VINYL CARBAMATE, 15805-73-9, Dose [Inhibitor]: 0, 2.5 UMOL IN 0.2 ML ACETONE ONCE 10 MIN PRIOR TO CARCINOGEN DOSE (STUDY DURATION: 22 WK), Route [Inhibitor]: DERMAL, Species: MOUSE, Strain/Sex: ICR/FEMALE, Target Tissue: Type of Lesion: SKIN: PAPILLOMA, Dose [Carcinogen]: 5.8 UMOL IN 0.2 ML ACETONE ONCE, Promoter: 12-O-TETRADECANOYLPHORBOL 13-ACETATE, 16561-29-8","70%, 53%, 24%, not significant"
Cc1ccc2oc(=O)ccc2c1,"tumour outcome (control, treated, inhibition, significance)","Carcinogen: BENZO[A]PYRENE, 50-32-8, Dose [Inhibitor]: 0.034 MMOL/G IN DIET FOR 5 WK BEGINNING 1 WK PRIOR TO FIRST CARCINOGEN DOSE AND CONTINUING FOR 3 D POST LAST CARCINOGEN, Route [Inhibitor]: ORAL, Species: MOUSE, Strain/Sex: ICR/FEMALE, Target Tissue: Type of Lesion: FORESTOMACH: TUMOR, Dose [Carcinogen]: 1 MG IN 0.2 ML CORN OIL 2/WK FOR 4 WK, Promoter: NONE USED","90%, 90%, 0%, not significant"
C[C@@]12C[C@@]3(O)O[C@@H](O1)[C@]1(COC(=O)c4ccccc4)[C@H]3C[C@@]12O[C@@H]1O[C@H](CO)[C@@H](O)[C@H](O)[C@H]1O,"tumour outcome (control, treated, inhibition, significance)","Carcinogen: AZOXYMETHANE, 25843-45-2, Dose [Inhibitor]: 0, 0.02% IN DIET IN WK 1-3 OF STUDY FOLLOWED BY BASAL DIET FOR DURATION OF STUDY (STUDY DURATION: 1 YR), Route [Inhibitor]: ORAL, Species: RAT, Strain/Sex: F344/MALE, Target Tissue: Type of Lesion: LARGE INTESTINE: ADENOCARCINOMA, Dose [Carcinogen]: 15 MG/KG BW 1/WK IN WK 1 AND 2 OF STUDY, Promoter: NONE USED","13/27 (48%), 5/28 (18%), 63%, not significant"
same,"tumour outcome (control, treated, inhibition, significance)","Carcinogen: AZOXYMETHANE, 25843-45-2, Dose [Inhibitor]: 0, 0.02% IN DIET IN WK 1-3 OF STUDY FOLLOWED BY BASAL DIET FOR DURATION OF STUDY (STUDY DURATION: 1 YR), Route [Inhibitor]: ORAL, Species: RAT, Strain/Sex: F344/MALE, Target Tissue: Type of Lesion: LARGE INTESTINE: ADENOMA, Dose [Carcinogen]: 15 MG/KG BW 1/WK IN WK 1 AND 2 OF STUDY, Promoter: NONE USED","6/27 (22%), 9/28 (32%), -45%, not significant"
